Results published in US7795290B2 (Genentech, Inc., priority 2004, dated 2010).

Legend:
Assay in all cases: HTS ATP-utilizing enzyme assay, off-chip mobility-shift (Caliper HTS 250)
Type in all cases: biochemical
Conditions in all cases: kinase named = inhibitory activity/selectivity; test compound 10 μM; active = greater than three-sigma from mean
CHEK2 = CHEK2 (Homo sapiens, UniProt O96017)
Excerpt: (§1) The following procedures describe the reagent and plate preparation for a HTS of an ATP-utilizing enzyme, such as a protein kinase, run in an off-chip mobility-shift assay format. The following provides an HTS protocol for running a protein kinase HTS screen on a Caliper HTS 250 microfluidics system. The following parameters are dependent on the protein kinase used and can be determined by one skilled in the art as part of a typical assay development process. For example, the peptide substrate used can be identified from the current literature, by screening a peptide library of potential protein kinase substrates, or by other applicable means accepted in the field.
(§2) Assays to determine the kinase inhibitory activity of chemical entities of the present disclosure were performed using a Caliper HTS 250 microfluidics device, Greiner U-bottom assay plates, a Multidrop for transfer of reagents, and Biomek FX (AMNCBM03) software. Initially, 2.4 μL of a 1 mM solution of a test compound in 100% DMSO was added to a well of the Greiner U-bottom plate. A single Greiner U-bottom plate having 24×16 wells could include multiple test compounds. Next, 40 μL of 1.06× Assay Buffer was added to each well of the assay plate. Using the Biomek FX, 10 μL of 0.5 M EDTA was added by the span-8 to wells, indicated as 100% Control and 2.4 μL of 100% DMSO was added by the span-8 to wells, indicated as 0% Control. Using the Multidrop, 10 μL of 2.5× Enzyme Buffer, followed by 10 μL of 2.5× Substrate Buffer was added to each well of the assay plate. The total reaction volume in each well was 25 μL, and the concentration of the test compound was 10 μM. The assay plate was incubated for 2.5 hrs at 20° C. to 22° C. After the incubation period, using the Multidrop, 45 μL of 1.55× Termination Buffer was added to each well of the assay plate to stop the reaction. The inhibition of the ATP-utilizing enzyme, such as a particular protein kinase, was determined by measuring the ratio of the peptide substrate to phosphorylated product for each well of the assay plate using the Caliper HTS 250 system.
(§3) The use of three-sigma statistical limits represents a conservative method for declaring potential hits among targets. The three-sigma activity, as well as the mean population activity, can be different for each target enzyme. This method has an expected false positive rate, from an in-control measurement process, of […].
(§4) Each chemical entity listed in Table 2 was tested for protein kinase inhibitory activity according to the biological assays and definitions of protein kinase inhibitory activity as described herein. For each exemplary compound listed in Table 2, the inhibitory activity for at least one protein kinase according to the biological assays and definitions of protein kinase inhibitory activity as described herein is indicated.

ZAP70 = molecular target: T1, ZAP70 (Homo sapiens, UniProt P43403)
T1 sequence (P43403 1-619): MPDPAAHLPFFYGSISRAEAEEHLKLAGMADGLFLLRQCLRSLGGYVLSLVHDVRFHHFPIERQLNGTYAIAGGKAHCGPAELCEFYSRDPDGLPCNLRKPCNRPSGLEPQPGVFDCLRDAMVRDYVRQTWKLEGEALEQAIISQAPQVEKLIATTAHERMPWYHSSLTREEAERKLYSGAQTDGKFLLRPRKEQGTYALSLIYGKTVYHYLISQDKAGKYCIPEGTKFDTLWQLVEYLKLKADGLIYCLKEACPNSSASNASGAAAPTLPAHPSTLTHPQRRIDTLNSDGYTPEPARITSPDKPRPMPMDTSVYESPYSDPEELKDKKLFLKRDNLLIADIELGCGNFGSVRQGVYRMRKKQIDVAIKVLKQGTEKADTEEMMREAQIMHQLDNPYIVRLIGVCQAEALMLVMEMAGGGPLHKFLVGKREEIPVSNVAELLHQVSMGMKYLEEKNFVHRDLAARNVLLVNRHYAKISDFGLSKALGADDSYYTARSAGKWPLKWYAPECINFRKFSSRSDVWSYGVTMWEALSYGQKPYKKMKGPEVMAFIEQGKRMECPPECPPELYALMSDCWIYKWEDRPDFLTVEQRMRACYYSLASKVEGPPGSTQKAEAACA
Excerpt: as §1, §2, §3, §4

AKT1 = molecular target: T2, AKT1 (Homo sapiens, UniProt P31749)
T2 construct: purchased Upstate 14-276
T2 sequence (P31749 whole entry): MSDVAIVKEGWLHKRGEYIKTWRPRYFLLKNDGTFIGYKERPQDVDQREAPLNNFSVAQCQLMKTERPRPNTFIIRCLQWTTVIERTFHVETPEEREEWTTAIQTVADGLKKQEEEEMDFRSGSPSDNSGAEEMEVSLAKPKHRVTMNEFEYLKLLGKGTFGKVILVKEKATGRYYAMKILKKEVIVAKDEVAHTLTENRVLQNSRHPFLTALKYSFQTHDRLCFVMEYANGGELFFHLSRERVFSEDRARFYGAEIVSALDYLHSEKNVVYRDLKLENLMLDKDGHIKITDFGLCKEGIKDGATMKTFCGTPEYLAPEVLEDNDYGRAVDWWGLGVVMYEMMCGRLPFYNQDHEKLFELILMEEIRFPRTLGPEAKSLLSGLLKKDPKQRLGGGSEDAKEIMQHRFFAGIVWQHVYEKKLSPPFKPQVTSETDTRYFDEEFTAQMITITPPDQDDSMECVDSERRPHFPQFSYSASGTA
Method in brief: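 AKT1 activity was measured by off-chip mobility shift (Caliper HTS 250) as the ratio of peptide substrate to phosphorylated product. Test compound was at 10 μM, with 2.5 h incubation at 20–22° C. EDTA wells served as 100% control and DMSO wells as 0%. Hits were called at three-sigma limits.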

DYRK2 = molecular target: T3, DYRK2 (Homo sapiens, UniProt Q92630)
T3 sequence (Q92630 1-601): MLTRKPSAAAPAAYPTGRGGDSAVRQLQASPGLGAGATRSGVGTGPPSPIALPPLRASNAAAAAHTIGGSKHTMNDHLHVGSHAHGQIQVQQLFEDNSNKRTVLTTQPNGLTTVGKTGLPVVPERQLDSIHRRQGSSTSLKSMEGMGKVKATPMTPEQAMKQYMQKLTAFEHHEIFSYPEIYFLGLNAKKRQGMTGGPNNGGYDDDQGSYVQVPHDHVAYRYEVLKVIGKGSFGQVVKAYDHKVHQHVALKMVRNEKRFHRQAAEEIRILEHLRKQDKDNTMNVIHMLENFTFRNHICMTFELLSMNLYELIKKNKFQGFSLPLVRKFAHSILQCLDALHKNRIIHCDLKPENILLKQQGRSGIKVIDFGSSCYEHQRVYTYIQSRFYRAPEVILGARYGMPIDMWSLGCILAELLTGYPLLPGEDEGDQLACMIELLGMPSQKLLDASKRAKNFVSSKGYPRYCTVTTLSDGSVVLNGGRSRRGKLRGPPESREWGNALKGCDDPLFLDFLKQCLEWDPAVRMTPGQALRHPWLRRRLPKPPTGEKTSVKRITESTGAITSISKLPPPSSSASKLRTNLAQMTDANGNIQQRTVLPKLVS
Excerpt: as §1, §2, §3, §4

CHEK2, sequence (O96017 whole entry): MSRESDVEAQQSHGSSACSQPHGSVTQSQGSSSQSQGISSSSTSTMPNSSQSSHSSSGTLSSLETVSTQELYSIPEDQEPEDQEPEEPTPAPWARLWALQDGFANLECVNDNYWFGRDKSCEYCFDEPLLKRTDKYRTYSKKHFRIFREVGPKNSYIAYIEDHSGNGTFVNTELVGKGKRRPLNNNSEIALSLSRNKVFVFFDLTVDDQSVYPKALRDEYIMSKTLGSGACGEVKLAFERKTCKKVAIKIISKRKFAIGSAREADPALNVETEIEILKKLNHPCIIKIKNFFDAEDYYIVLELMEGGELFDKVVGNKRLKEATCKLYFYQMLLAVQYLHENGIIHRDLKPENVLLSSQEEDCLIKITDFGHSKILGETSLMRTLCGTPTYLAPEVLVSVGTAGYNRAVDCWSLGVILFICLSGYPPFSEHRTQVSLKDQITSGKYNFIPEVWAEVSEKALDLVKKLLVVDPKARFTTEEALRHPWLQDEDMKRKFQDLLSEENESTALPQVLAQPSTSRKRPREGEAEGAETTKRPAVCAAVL

Activity (CHEK2)	Activity (ZAP70)	Activity (AKT1)	Activity (DYRK2)	SMILES
CHEK2	–	–	–	CCN(CC)CCCN(C(=O)c1ccccc1Cl)c1nc(-c2cc(OC)ccc2OC)cs1 [2-chloro-N-(3-(diethylamino)propyl)-N-(4-(2,5-dimethoxyphenyl)thiazol-2-yl)benzamide]
–	ZAP70	–	–	COc1ccc(-c2csc(N(CCCN3CCOCC3)C(=O)c3ccccc3C#N)n2)cc1 [2-cyano-N-(4-(4-methoxyphenyl)thiazol-2-yl)-N-(3-morpholinopropyl)benzamide]
–	ZAP70	AKT1	–	COc1ccc(-c2csc(N(CCCN3CCOCC3)C(=O)c3sccc3Br)n2)cc1 [3-bromo-N-(4-(4-methoxyphenyl)thiazol-2-yl)-N-(3-morpholinopropyl)thiophene-2-carboxamide]
–	ZAP70	–	–	COc1ccc(-c2csc(N(CCCN3CCOCC3)C(=O)c3nsc(Cl)c3Cl)n2)cc1 [4,5-dichloro-N-(4-(4-methoxyphenyl)thiazol-2-yl)-N-(3-morpholinopropyl)isothiazole-3-carboxamide]
–	–	–	DYRK2	COc1ccc(-c2csc(N(Cc3ccco3)C(=O)CCC(=O)O)n2)cc1 [4-((furan-2-ylmethyl)(4-(4-methoxyphenyl)thiazol-2-yl)amino)-4-oxobutanoic acid]
–	–	–	DYRK2	COc1ccc(-c2csc(N(Cc3ccccc3)C(=O)CCC(=O)O)n2)cc1 [4-(benzyl(4-(4-methoxyphenyl)thiazol-2-yl)amino)-4-oxobutanoic acid]
–	–	–	DYRK2	CCN(C(=O)CCC(=O)O)c1nc(-c2ccc(OC)cc2)cs1 [4-(ethyl(4-(4-methoxyphenyl)thiazol-2-yl)amino)-4-oxobutanoic acid]
–	ZAP70	–	–	COc1ccc(-c2csc(N(CCCN3CCOCC3)C(=O)c3ccc(C(C)=O)s3)n2)cc1 [5-acetyl-N-(4-(4-methoxyphenyl)thiazol-2-yl)-N-(3-morpholinopropyl)thiophene-2-carboxamide]
–	ZAP70	AKT1	–	COc1ccc(-c2csc(N(CCCN3CCOCC3)C(=O)c3ccc(Br)s3)n2)cc1 [5-bromo-N-(4-(4-methoxyphenyl)thiazol-2-yl)-N-(3-morpholinopropyl)thiophene-2-carboxamide]
–	ZAP70	AKT1	–	COc1ccc(-c2csc(N(CCCN3CCOCC3)C(=O)c3cccc(Cl)n3)n2)cc1 [6-chloro-N-(4-(4-methoxyphenyl)thiazol-2-yl)-N-(3-morpholinopropyl)picolinamide]
–	–	–	DYRK2	COCCN(C(C)=O)c1nc(-c2ccc(OC)cc2)cs1 [N-(2-methoxyethyl)-N-(4-(4-methoxyphenyl)thiazol-2-yl)acetamide]
CHEK2	–	AKT1	–	CN1CCN(CCCN(C(=O)c2cccs2)c2nc(-c3ccccc3)cs2)CC1 [N-(3-(4-methylpiperazin-1-yl)propyl)-N-(4-phenylthiazol-2-yl)thiophene-2-carboxamide]
CHEK2	–	AKT1	–	CCN(CC)CCCN(C(=O)c1ccccc1F)c1nc(-c2cc(OC)ccc2OC)cs1 [N-(3-(diethylamino)propyl)-N-(4-(2,5-dimethoxyphenyl)thiazol-2-yl)-2-fluorobenzamide]
–	–	–	DYRK2	CCN(CC)CCCN(C(=O)COc1ccc(C)cc1)c1nc(-c2ccc(OC)cc2)cs1 [N-(3-(diethylamino)propyl)-N-(4-(4-methoxyphenyl)thiazol-2-yl)-2-(p-tolyloxy)acetamide]
CHEK2	–	AKT1	–	CN(C)CCCN(C(=O)c1ccccc1F)c1nc(-c2ccccc2)cs1 [N-(3-(dimethylamino)propyl)-2-fluoro-N-(4-phenylthiazol-2-yl)benzamide]
CHEK2	–	AKT1	–	COc1ccc(OC)c(-c2csc(N(CCCN3CCN(C)CC3)C(=O)c3ccco3)n2)c1 [N-(4-(2,5-dimethoxyphenyl)thiazol-2-yl)-N-(3-(4-methylpiperazin-1-yl)propyl)furan-2-carboxamide]
CHEK2	–	AKT1	–	COc1ccc(OC)c(-c2csc(N(CCCN(C)C)C(=O)c3ccccc3F)n2)c1 [N-(4-(2,5-dimethoxyphenyl)thiazol-2-yl)-N-(3-(dimethylamino)propyl)-2-fluorobenzamide]
CHEK2	–	AKT1	–	COc1ccc(OC)c(-c2csc(N(CCCN(C)C)C(=O)c3cccs3)n2)c1 [N-(4-(2,5-dimethoxyphenyl)thiazol-2-yl)-N-(3-(dimethylamino)propyl)thiophene-2-carboxamide]
–	–	–	DYRK2	COc1ccc(-c2csc(N(CCCN3CCOCC3)C(=O)CC(C)(C)C)n2)cc1 [N-(4-(4-methoxyphenyl)thiazol-2-yl)-3,3-dimethyl-N-(3-morpholinopropyl)butanamide]
–	ZAP70	–	DYRK2	COc1ccc(-c2csc(N(CCCN3CCOCC3)C(=O)c3conc3C)n2)cc1 [N-(4-(4-methoxyphenyl)thiazol-2-yl)-3-methyl-N-(3-morpholinopropyl)isoxazole-4-carboxamide]
–	–	–	DYRK2	CCC(=O)N(CCCOC)c1nc(-c2ccc(OC)cc2)cs1 [N-(4-(4-methoxyphenyl)thiazol-2-yl)-N-(3-methoxypropyl)propionamide]
–	–	–	DYRK2	COc1ccc(-c2csc(N(CCCN3CCOCC3)C(C)=O)n2)cc1 [N-(4-(4-methoxyphenyl)thiazol-2-yl)-N-(3-morpholinopropyl)acetamide]
–	–	AKT1	DYRK2	COc1ccc(-c2csc(N(CCCN3CCOCC3)C(=O)c3ccco3)n2)cc1 [N-(4-(4-methoxyphenyl)thiazol-2-yl)-N-(3-morpholinopropyl)furan-2-carboxamide]
–	–	–	DYRK2	CCC(=O)N(CC1CCCO1)c1nc(-c2ccc(OC)cc2)cs1 (stereo not shown) [N-(4-(4-methoxyphenyl)thiazol-2-yl)-N-((tetrahydrofuran-2-yl)methyl)propionamide]
–	–	–	DYRK2	COc1ccc(-c2csc(N(C)C(C)=O)n2)cc1 [N-(4-(4-methoxyphenyl)thiazol-2-yl)-N-methylacetamide]
–	–	–	DYRK2	CCC(=O)N(CC)c1nc(-c2ccc(OC)cc2)cs1 [N-ethyl-N-(4-(4-methoxyphenyl)thiazol-2-yl)propionamide]
